Laboratory results as given in US12409126B2, “Ginsenoside-containing composition, daily-use chemical and use thereof” (InCipirit Tech (Guangzhou) Co., Ltd., priority 2023, dated 2025).
Counter-ions that a name gives are not always drawn.

System: human epidermal keratinocytes
Experiment: Epidermal keratinocyte proliferation in dermal papilla cell and epidermal keratinocyte double-layer culture system
Assay type: cell-based
Details: 0.2 μg/ml, 2 μg/ml, 20 μg/ml, 200 μg/ml
Description: 500 μl of human epidermal keratinocytes (30,000 cells/ml) were added to each well of MULTIWELL 24well, followed by the addition of 1.0 μm of cell culture inserts for culture for 1 day. 300 μl of dermal papilla cells (20,000 cells/ml) had been added in the 1.0 μm of cell culture inserts. each 1 μl/well of the Radix et Rhizoma Ginseng extracts 1-7, the positive control (minoxidil sulfate) and the blank control (DMSO) was then added for continued culture for 3 days. After removal of the 1.0 μm of cell culture inserts, 50 μl/well of Cell Counting Kit-8 (Dojindo Laboratories) was added for continued culture for 2 hours, and the cell number was determined using a microplate reader (450 nm, Mix0).

Nc1cc(N2CCCCC2)nc(N)[n+]1OS(=O)(=O)[O-] [Minoxidil sulfate, minoxidil sulfate]
epidermal keratinocyte proliferation in double-layer culture system: no effect in promoting keratinocyte proliferation
